Columns and labels:
[1] = test system: P. falciparum male gametocytes; assay: P. falciparum Dual Gamete Formation Assay (PfDGFA), male readout (exflagellation); assay type: cell-based, Plasmodium falciparum NF54; settings: for Average inhibition male (%) / % inhibition male (individual replicates) R1 / % inhibition male (individual replicates) R3 / % inhibition male (individual replicates) R4 / HitlevelM: 2µM; for Average inhibition male (%) / % inhibition male (individual replicates) R1 / % inhibition male (individual replicates) R3 / % inhibition male (individual replicates) R4: 24h preincubation with gametocytes prior to induction of gametogenesis; for Average inhibition male (%): average of replicates; for % inhibition male (individual replicates) R1: replicate R1; for % inhibition male (individual replicates) R3: replicate R3; for % inhibition male (individual replicates) R4: replicate R4; for HitlevelM / Activity: 24h preincubation; for Activity: PfDGFA at 2µM, hit = >50% inhibition in male or female readout in at least 3 replicates, 0 = no class assigned
Procedure, shortened: (§1)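 Read-outs are automated image counts of exflagellation centres (brightfield, 10 frames over 1 s) and Pfs25-positive female gametes (Cy3 fluorescence).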

[2] = test system: P. falciparum female gametocytes; assay: P. falciparum Dual Gamete Formation Assay (PfDGFA), female readout (Pfs25-positive female gametes); assay type: cell-based, Plasmodium falciparum NF54; settings: 2µM; for Average inhibition female (%) / % inhibition female (individual replicates) R1 / % inhibition female (individual replicates) R3 / % inhibition female (individual replicates) R4: 24h preincubation with gametocytes prior to induction of gametogenesis; for Average inhibition female (%): average of replicates; for % inhibition female (individual replicates) R1: replicate R1; for % inhibition female (individual replicates) R3: replicate R3; for % inhibition female (individual replicates) R4: replicate R4; for HitlevelF: 24h preincubation
Procedure, shortened: as §1

[3] = hits selected on >50% inhibition in the male readout across replicates
[4] = hits selected on >50% inhibition in the female readout across replicates
[5] = number of replicates with >50% inhibition in the male readout
[6] = number of replicates with >50% inhibition in the female readout

COc1ccc2nccc([C@H](O)CN3CCC(NCc4ccc5c(c4C)OCCO5)CC3)c2n1.Cl [TCMDC-136066]
Average inhibition male (%) [1]: -9.6%
% inhibition male (individual replicates) R1 [1]: -4.0%
% inhibition male (individual replicates) R3 [1]: -34.1%
% inhibition male (individual replicates) R4 [1]: 0.2%
HitlevelM [1, 3]: 0
Activity [1]: 0
Average inhibition female (%) [2]: 6.6%
% inhibition female (individual replicates) R1 [2]: 21.2%
% inhibition female (individual replicates) R3 [2]: -26.0%
% inhibition female (individual replicates) R4 [2]: 9.8%
HitlevelF [2, 4]: 0

Cn1cc(CN2CCC(OC(c3ccccc3)c3ccc(Cl)cc3)CC2)cn1 (stereo not drawn) [TCMDC-136165]
Average inhibition male (%) [1]: 26.9%
% inhibition male (individual replicates) R1 [1]: 21.0%
% inhibition male (individual replicates) R3 [1]: 11.7%
% inhibition male (individual replicates) R4 [1]: 55.6%
HitlevelM [1, 5]: 1
Average inhibition female (%) [2]: 27.9%
% inhibition female (individual replicates) R1 [2]: 28.0%
% inhibition female (individual replicates) R3 [2]: 20.7%
% inhibition female (individual replicates) R4 [2]: 33.3%
HitlevelF [2, 6]: 0

CCn1c(-c2nonc2N)nc2c(-c3cccc(NC(=O)Nc4ccccc4OC)c3)ncc(OCCCN)c21.O=C(O)C(F)(F)F [TCMDC-136190]
Average inhibition male (%) [1]: 38.6%
% inhibition male (individual replicates) R1 [1]: 46.0%
% inhibition male (individual replicates) R3 [1]: 15.9%
% inhibition male (individual replicates) R4 [1]: 54.2%
HitlevelM [1, 5]: 1
Average inhibition female (%) [2]: 31.3%
% inhibition female (individual replicates) R1 [2]: 29.0%
% inhibition female (individual replicates) R3 [2]: 9.1%
% inhibition female (individual replicates) R4 [2]: 20.1%
HitlevelF [2, 6]: 1

Cc1[nH]cc(Br)c(=O)c1-c1ccc(Oc2ccc(OC(F)(F)F)cc2)cc1 [TCMDC-136197]
Average inhibition male (%) [1]: -14.5%
% inhibition male (individual replicates) R1 [1]: -14.1%
% inhibition male (individual replicates) R3 [1]: -25.2%
% inhibition male (individual replicates) R4 [1]: -5.8%
HitlevelM [1, 3]: 0
Activity [1]: 0
Average inhibition female (%) [2]: 8.0%
% inhibition female (individual replicates) R1 [2]: 22.6%
% inhibition female (individual replicates) R3 [2]: 0.02%
% inhibition female (individual replicates) R4 [2]: -5.7%
HitlevelF [2, 4]: 0

Cl.c1ccc2c(C3CCN(CCCCOc4ccc5c(c4)CCN(CC4CC4)CC5)CC3)c[nH]c2c1 [TCMDC-136244]
Average inhibition male (%) [1]: 8.5%
% inhibition male (individual replicates) R1 [1]: 7.6%
% inhibition male (individual replicates) R3 [1]: -1.4%
% inhibition male (individual replicates) R4 [1]: 14.2%
HitlevelM [1, 5]: 0
Average inhibition female (%) [2]: 24.9%
% inhibition female (individual replicates) R1 [2]: 21.4%
% inhibition female (individual replicates) R3 [2]: 5.1%
% inhibition female (individual replicates) R4 [2]: 24.5%
HitlevelF [2, 6]: 0

Cc1ccc(-n2c(C)nc3c(Nc4ccc(-c5ccncc5)cc4)ncnc32)c(C)c1 [TCMDC-136289]
Average inhibition male (%) [1]: 51.6%
% inhibition male (individual replicates) R1 [1]: 92.5%
% inhibition male (individual replicates) R4 [1]: -28.8%
HitlevelM [1, 3]: 2
Activity [1]: 0
Average inhibition female (%) [2]: 6.8%
% inhibition female (individual replicates) R1 [2]: 7.7%
% inhibition female (individual replicates) R3 [2]: 15.7%
% inhibition female (individual replicates) R4 [2]: 3.5%
HitlevelF [2, 4]: 0

CN(C)CCCNCc1cn(S(=O)(=O)c2ccccc2Cl)c2ccccc12.Cl [TCMDC-136302]
Average inhibition male (%) [1]: 39.6%
% inhibition male (individual replicates) R1 [1]: 57.4%
% inhibition male (individual replicates) R3 [1]: 42.5%
% inhibition male (individual replicates) R4 [1]: 62.3%
HitlevelM [1, 5]: 2
Average inhibition female (%) [2]: 50.5%
% inhibition female (individual replicates) R1 [2]: 52.5%
% inhibition female (individual replicates) R3 [2]: 48.5%
% inhibition female (individual replicates) R4 [2]: 54.4%
HitlevelF [2, 6]: 2

Reference: article PMC10584170, “Machine learning-based phenotypic imaging to characterise the targetable biology of Plasmodium falciparum male gametocytes for the development of transmission-blocking antimalarials” (PLOS Pathogens, 2023)
